Data on seven molecules can be found in PubChem BioAssay (NCI).

Some test systems named below: ACHN renal; COLO 205 colon; HCC-2998 colon; HOP-92 NSCLC; KM12 colon; OVCAR-5 ovarian; SK-MEL-5 melanoma; SNB-19 CNS; SNB-75 CNS; SR leukemia.
Common to all, as to experiment: inhibition of tumour cell growth, NCI panel, 48 h

Several values for one entry are separate records, joined by “and”; a condition that tells them apart may be missing. Identical values can stand only once.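 Five compound concentrations were applied to cells in 96-well plates for 48 hours; endpoints were derived by simple linear interpolation of the resulting dose-response curve. GI50: concentration for 50% inhibition of growth. At the TGI there is no net growth.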

Take `COc1ccc(C2CC(C)=Nc3c([nH]c(=S)[nH]c3=O)N2)cc1` (stereo not given): the TGI in the assay with ACHN renal is 36.1 µM; in the assay with COLO 205 colon, 32.7 µM; in the assay with HCC-2998 colon it was 30.3 µM; in the assay on HOP-92 NSCLC, > 100 µM; in the assay with KM12 colon it was 32 µM; in the assay on OVCAR-5 ovarian it was 56.7 µM. Also, the TGI was determined as 32.5 µM in the assay on SK-MEL-5 melanoma, 37.5 µM in the assay on SNB-19 CNS, 70.1 µM in the assay with SNB-75 CNS and 65 µM in the assay on SR leukemia.

Consider `O=C1CCCC2COc3ccc(O)c1c32` (stereo not given), for which the TGI with ACHN renal, in the assay on COLO 205 colon, with HCC-2998 colon, in the assay with HOP-92 NSCLC, in the assay with KM12 colon and with OVCAR-5 ovarian was > 100 µM throughout. Further, the TGI with SK-MEL-5 melanoma, in the assay with SNB-19 CNS, with SNB-75 CNS and in the assay with SR leukemia was > 100 µM throughout.

For `CCc1ccc(/C=C2/SC(=S)NC2=O)cc1`, the GI50 in the assay on ACHN renal was 27.2 µM; with COLO 205 colon, 18.3 µM; in the assay on HCC-2998 colon it was 18.8 µM; in the assay on HOP-92 NSCLC it was 3.41 µM; in the assay on KM12 colon, 25.1 µM; with OVCAR-5 ovarian it was 24.1 µM. For the same molecule, the GI50 in the assay on SK-MEL-5 melanoma is 14.9 µM; in the assay with SNB-19 CNS it was 20.3 µM; in the assay on SNB-75 CNS, 21.7 µM; in the assay on SR leukemia, 19.4 µM. Further, the TGI in the assay with ACHN renal was > 100 µM; in the assay on COLO 205 colon, 33.7 µM; in the assay with HCC-2998 colon it was 45.7 µM; with HOP-92 NSCLC, 26.4 µM; with KM12 colon it was > 77.3 µM; in the assay with OVCAR-5 ovarian, 90.6 µM. The TGI with SK-MEL-5 melanoma is 37.6 µM; in the assay on SNB-19 CNS, > 90.3 µM; with SNB-75 CNS it was > 100 µM; in the assay on SR leukemia, > 84.9 µM.

With `O=C(O)CCN1C(=O)/C(=C/C(Cl)=C/c2ccccc2)SC1=S`, the GI50 was 1.93 µM in the assay with ACHN renal; 2.86 µM in the assay on COLO 205 colon; 1.88 µM in the assay with HCC-2998 colon; 4.35 µM in the assay on HOP-92 NSCLC; 2.01 µM in the assay on KM12 colon; 2.77 µM with OVCAR-5 ovarian. The GI50 in the assay on SK-MEL-5 melanoma is 1.84 µM; in the assay on SNB-19 CNS, 3.41 µM; in the assay with SNB-75 CNS it was 1.79 µM; in the assay with SR leukemia it was 0.929 µM. Further, the TGI in the assay on ACHN renal stood at 4.76 µM; with COLO 205 colon, 6.71 µM; in the assay on HCC-2998 colon it was 3.38 µM; in the assay with HOP-92 NSCLC, 12.5 µM; with KM12 colon, 4.64 µM; in the assay with OVCAR-5 ovarian, 6.8 µM. In addition, the TGI came out at 3.47 µM with SK-MEL-5 melanoma, 13.3 µM in the assay with SNB-19 CNS, 10.1 µM with SNB-75 CNS and 5.47 µM in the assay with SR leukemia.

In the case of `O=C(O)c1c(Cl)c(Cl)c(Cl)c(Cl)c1-c1c2cc(I)c(=O)c(I)c-2oc2c(I)c(O)c(I)cc12`, the GI50 with ACHN renal was 54.8 µM; in the assay with COLO 205 colon, 45.8 µM; with HCC-2998 colon, 36.5 µM; with HOP-92 NSCLC, 19.3 µM and 29.7 µM; in the assay with KM12 colon, 53.6 µM; with OVCAR-5 ovarian, 41.9 µM. For the same molecule, the GI50 in the assay with SK-MEL-5 melanoma is 36.3 µM; in the assay on SNB-19 CNS, 38.2 µM and 28.6 µM; with SNB-75 CNS, 32.1 µM and 34 µM; in the assay on SR leukemia, 39.1 µM and 31.6 µM. For the same molecule, the TGI is > 200 µM in the assay with ACHN renal; 159 µM in the assay with COLO 205 colon; 70.8 µM in the assay with HCC-2998 colon; 68 µM and 71.6 µM with HOP-92 NSCLC; 182 µM in the assay with KM12 colon; 163 µM with OVCAR-5 ovarian. Further, the TGI with SK-MEL-5 melanoma stood at 68.9 µM; in the assay with SNB-19 CNS, 63.8 µM; with SNB-75 CNS, 79.8 µM; with SR leukemia, 87.6 µM.

For the molecule `O=C(O)C(O)C(O)C1[O][Sb][O]C1CO` (stereo not given), the GI50 in the assay with ACHN renal, in the assay with COLO 205 colon, in the assay on HCC-2998 colon, in the assay on HOP-92 NSCLC, in the assay on KM12 colon and in the assay with OVCAR-5 ovarian was > 100 µM throughout. Further, the GI50 in the assay on SK-MEL-5 melanoma is 27.2 µM and 12.7 µM; with SNB-19 CNS, > 100 µM; in the assay with SNB-75 CNS it was > 100 µM; with SR leukemia, > 100 µM. Also, the TGI in the assay with ACHN renal, in the assay on COLO 205 colon, with HCC-2998 colon, with HOP-92 NSCLC, in the assay with KM12 colon and with OVCAR-5 ovarian was > 100 µM each time. Besides, the TGI in the assay with SK-MEL-5 melanoma was > 100 µM and 30.7 µM; with SNB-19 CNS it was > 100 µM; in the assay with SNB-75 CNS, > 100 µM; with SR leukemia, > 100 µM.

For `CCOc1ccc(N2C(N)=NC(N)=NC2(C)C)cc1`, the GI50 in the assay with ACHN renal is > 100 µM; with COLO 205 colon, 69.9 µM; with HCC-2998 colon it was > 100 µM; in the assay on HOP-92 NSCLC it was > 100 µM; in the assay on KM12 colon, 74 µM; in the assay with OVCAR-5 ovarian, 39.7 µM. Besides, the GI50 in the assay on SK-MEL-5 melanoma was 40.8 µM; with SNB-19 CNS, 55.8 µM; with SNB-75 CNS, 60.5 µM; in the assay with SR leukemia it was 74.6 µM. Moreover, the TGI in the assay on ACHN renal, in the assay with COLO 205 colon, with HCC-2998 colon, with HOP-92 NSCLC, with KM12 colon and in the assay on OVCAR-5 ovarian was > 100 µM each time. Also, the TGI with SK-MEL-5 melanoma, in the assay on SNB-19 CNS, in the assay on SNB-75 CNS and with SR leukemia was > 100 µM in each case.
